Measurements from ChEMBL document CHEMBL3751744, “Antibacterial activities of polythionates enhanced by carbonates” (2015).
One block for each compound: values may come before it. The source made the active and inactive calls. The rule behind the calls is not given here.

Experiments:
Staphylococcus aureus [1] = system: Staphylococcus aureus
Staphylococcus aureus [2] = system: Staphylococcus aureus; remark: listed apart in the source
Description: Bactericidal activity against Staphylococcus aureus assessed number of surviving colonies after 24 hrs

Pseudomonas aeruginosa [3] = system: Pseudomonas aeruginosa
Description: (§1) Antibacterial activity against Pseudomonas aeruginosa assessed as growth inhibition after 24 hrs by turbidimetric method

Pseudomonas aeruginosa [4] = system: Pseudomonas aeruginosa; remark: listed apart in the source
Staphylococcus aureus [5] = test: Antibacterial activity against Staphylococcus aureus assessed as growth inhibition after 24 hrs by turbidimetric method; assay type: functional
Pseudomonas aeruginosa [6] = test: microbe, parasite or virus in culture; assay type: functional; settings: 24 h
Description: as §1

Pseudomonas aeruginosa [7] = test: Bactericidal activity against Pseudomonas aeruginosa assessed number of surviving colonies after 24 hrs; assay type: functional; settings: read-out: MBC99.9
Pseudomonas aeruginosa [8] = test: Antibacterial activity against Pseudomonas aeruginosa using 24 hrs aged compound solutions by cup diffusion method; assay type: functional, organism-based
Staphylococcus aureus [9] = test: Antibacterial activity against Staphylococcus aureus assessed as growth inhibition after 24 hrs in presence of urea by turbidimetric method; assay type: functional
Pseudomonas aeruginosa [10] = test: Antibacterial activity against Pseudomonas aeruginosa assessed as growth inhibition after 24 hrs in presence of urea by turbidimetric method; assay type: functional
Pseudomonas aeruginosa [11] = test: Bactericidal activity against Pseudomonas aeruginosa assessed number of surviving colonies after 24 hrs in presence of urea; assay type: functional; settings: read-out: MBC99.9
Staphylococcus aureus [12] = test: Bactericidal activity against Staphylococcus aureus […] assessed number of surviving colonies after 24 hrs in presence of carbonate; assay type: functional, organism-based
Staphylococcus aureus [13] = test: Antibacterial activity against Staphylococcus aureus assessed as growth inhibition after 24 hrs in presence of carbonate by turbidimetric method; assay type: functional
Pseudomonas aeruginosa [14] = test: Antibacterial activity against Pseudomonas aeruginosa assessed as growth inhibition after 24 hrs in presence of carbonate by turbidimetric method; assay type: functional
Staphylococcus aureus [15] = test: Bactericidal activity against Staphylococcus aureus […] assessed number of surviving colonies after 24 hrs in presence of urea; assay type: functional, organism-based
Pseudomonas aeruginosa [16] = test: Bactericidal activity against Pseudomonas aeruginosa assessed number of surviving colonies after 24 hrs in presence of carbonate; assay type: functional; settings: read-out: MBC99.9
Staphylococcus aureus [17] = test: Antibacterial activity against Staphylococcus aureus at <125 ug/ml by cup diffusion method; assay type: functional, organism-based
Pseudomonas aeruginosa [18] = test: Antibacterial activity against Pseudomonas aeruginosa at 125 ug/ml by cup diffusion method; assay type: functional, organism-based
Pseudomonas aeruginosa [19] = test: Antibacterial activity against Pseudomonas aeruginosa at 7.8 ug/ml by cup diffusion method; assay type: functional, organism-based
Staphylococcus aureus [20] = test: Antibacterial activity against Staphylococcus aureus at 250 ug/ml by cup diffusion method; assay type: functional, organism-based
Staphylococcus aureus [21] = test: Potency index, ratio of MIC for Staphylococcus aureus to MIC for Staphylococcus aureus assessed as growth inhibition in presence of urea; assay type: functional
Pseudomonas aeruginosa [22] = test: Potency index, ratio of MIC for Pseudomonas aeruginosa to MIC for Pseudomonas aeruginosa assessed as growth inhibition in presence of urea; assay type: functional

- MIC (Staphylococcus aureus [1]): inactive
- MIC (Pseudomonas aeruginosa [3]): inactive
Compound: NC(N)=O
- MBC99.9 (Staphylococcus aureus [2]): inactive
- MBC99.9 (Pseudomonas aeruginosa [4]): inactive

- MIC (Staphylococcus aureus [5]): 62.5 µg/mL
- MIC (Pseudomonas aeruginosa [6]): 1.95 µg/mL
- MIC (Staphylococcus aureus [9]): inactive
- MIC (Pseudomonas aeruginosa [10]): 15.6 µg/mL
- MIC (Staphylococcus aureus [13]): 125 µg/mL
- MIC (Pseudomonas aeruginosa [14]): 3.91 µg/mL
Compound: O=S(=O)([O-])SSSS(=O)(=O)[O-].[K+].[K+]
- MBC (Pseudomonas aeruginosa [7]): 500 µg/mL
- Activity (Pseudomonas aeruginosa [8]): Active
- MBC (Pseudomonas aeruginosa [11]): 1000 µg/mL
- MBC99.9 (Staphylococcus aureus [12]): inactive
- MBC99.9 (Staphylococcus aureus [15]): inactive
- MBC (Pseudomonas aeruginosa [16]): 1000 µg/mL
- MBC99.9 (Staphylococcus aureus [2]): inactive

- MIC (Staphylococcus aureus [1]): inactive
- MIC (Pseudomonas aeruginosa [3]): inactive
Compound: O=S(=O)(O)SS(=O)(=O)O
- MBC99.9 (Staphylococcus aureus [2]): inactive
- MBC99.9 (Pseudomonas aeruginosa [4]): inactive

- MIC (Staphylococcus aureus [1]): inactive
- MIC (Pseudomonas aeruginosa [3]): inactive
Compound: O=S(=O)(O)SSS(=O)(=O)O
- MBC99.9 (Staphylococcus aureus [2]): inactive
- MBC99.9 (Pseudomonas aeruginosa [4]): inactive

- MIC (Staphylococcus aureus [5]): 7.81 µg/mL
- MIC (Pseudomonas aeruginosa [6]): 0.98 µg/mL
- MIC (Staphylococcus aureus [9]): 62.5 µg/mL
- MIC (Pseudomonas aeruginosa [10]): 1.95 µg/mL
- MIC (Staphylococcus aureus [13]): 15.6 µg/mL
- MIC (Pseudomonas aeruginosa [14]): 1.95 µg/mL
Compound: O=S(=O)([O-])SSSSS(=O)(=O)[O-].[K+].[K+]
- Activity (Staphylococcus aureus [17]): inactive
- Activity (Pseudomonas aeruginosa [18]): Active
- MBC (Pseudomonas aeruginosa [7]): 1000 µg/mL
- Activity (Pseudomonas aeruginosa [19]): Active
- Activity (Staphylococcus aureus [20]): Active
- Activity (Pseudomonas aeruginosa [8]): Active
- MBC (Pseudomonas aeruginosa [11]): 500 µg/mL
- Ratio (Staphylococcus aureus [21]): 4
- Ratio (Pseudomonas aeruginosa [22]): 4
- MBC99.9 (Staphylococcus aureus [12]): inactive
- MBC99.9 (Staphylococcus aureus [15]): inactive
- MBC (Pseudomonas aeruginosa [16]): 500 µg/mL
- MBC99.9 (Staphylococcus aureus [2]): inactive

Compound: O=S(=O)(O)O
- MIC (Staphylococcus aureus [1]): inactive
- MBC99.9 (Staphylococcus aureus [2]): inactive
- MIC (Pseudomonas aeruginosa [3]): inactive
- MBC99.9 (Pseudomonas aeruginosa [4]): inactive

- MIC (Staphylococcus aureus [1]): inactive
- MIC (Pseudomonas aeruginosa [3]): inactive
Compound: O=S(O)(O)=S
- MBC99.9 (Staphylococcus aureus [2]): inactive
- MBC99.9 (Pseudomonas aeruginosa [4]): inactive
